Tests used:
[1] = system: U46619 induced hypertension; experiment: Test (d): U46619 induced hypertension in anaesthetised rats; assay type: in vivo, rat (Alderley Park strain)
Procedure: (d) Male rats (Alderley Park strain) are anaesthetised with sodium pentobarbital and blood pressure is monitored at the carotid artery. The TXA2 mimetic agent U46619 is administered intravenously via the jugular vein at 5 μg/kg to induce a 20-30 mmHg (2640-3940 pascal) increase in systolic blood pressure. The process is repeated twice to ensure adequacy of response. A test compound is then administered either intravenously (via the jugular vein) or orally (via a cannula) directly into the stomach and the animal is challenged with U46619, five minutes after dosing with test compound and then successively every ten minutes until the hypertensive effect of U46619 is no longer blocked.
Similarly, using test procedure (d) referred to above, the following representative results were obtained on inhibition of U46619 induced hypertension with the compounds of formula I referred to above: […]

TXA2 [2] = target: T1, TXA2 (Oryctolagus cuniculus, UniProt Q6WQI8); experiment: Test (a): rabbit aortic strip model, TXA2 or U46619 as agonist; assay type: cell-based; settings: rabbit aortic strip, ±0.05
T1 construct: functional contraction assay (pA2)
T1 sequence (Q6WQI8 1-233): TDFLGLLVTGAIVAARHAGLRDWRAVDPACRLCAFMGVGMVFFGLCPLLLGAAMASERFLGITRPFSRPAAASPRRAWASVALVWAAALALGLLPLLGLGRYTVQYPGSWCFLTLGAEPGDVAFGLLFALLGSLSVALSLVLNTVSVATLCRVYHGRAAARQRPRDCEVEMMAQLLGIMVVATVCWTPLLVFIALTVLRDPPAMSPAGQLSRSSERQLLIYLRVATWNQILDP
Procedure: (§1) (a) The rabbit aortic strip model devised by Piper and Vane (Nature, 1969, 223, 29-35) using as agonist a freshly prepared sample of TXA2, generated by addition of arachidonic acid (25 μg) to citrated, platelet rich rabbit plasma (250 μl ) and allowing the mixture to aggregate fully over 90 seconds before use; alternatively the TXA2 mimetic agent known as U46619 (described by R. L. Jones et alia in "Chemistry, Biochemistry and Pharmacological Activity of Prostanoids" edited by S. M. Roberts and F. Scheinmann, at page 211; Pergamon Press, 1979) may be used as the agonist;
(§2) Using the above test procedures (a)-(c), the following representative results have been obtained with the compounds of formula I (X=Y=H) wherein (i) R is isopropyl, (ii) R is t-butyl; or (iii) R is sec-butyl, respectively: […]

[3] = system: U46619 induced bronchoconstriction; experiment: Test (c): U46619 induced bronchoconstriction, Konzett-Rossler anaesthetised guinea-pig model; assay type: in vivo; settings: 2 hours after oral dosing at 0.05 mg/kg
Excerpt: (c) a bronchoconstriction test involving measuring the inhibition by a test compound of the bronchoconstriction induced in the Konzett-Rossler, anaesthetised guinea-pig model (as modified by Collier and James, Brit. J. Pharmacol., 1967, 30, 283-307) by intravenous administration of the TXA2 mimetic agent, U46619 and involving:
(i) obtaining a cumulative dose-response curve to U46619 induced bronchoconstriction by intravenous administration of constant volumes of increasing concentrations of U46619 (0.2-4 μg/kg) in physiological saline solution and expressing bronchoconstriction as the maximum of that theoretically obtainable with no air flow to the test animal;
(ii) generating a cumulative dose-response curve to U46619 induced bronchoconstriction at 30 minute intervals for 3 hours after oral dosing of test compound; and
(iii) calculating a dose-ratio for the test compound (that is the ratio of concentration of U46619 required to cause 50% bronchoconstriction in the presence and absence of test compound) indicating the potency of TXA2 antagonism.
as §2

[4] = target: T2, U46619 stimulated platelet aggregation (Homo sapiens, UniProt P21731); experiment: Test (b): blood platelet aggregation test, human citrated platelet-rich plasma, U46619 stimulated; assay type: cell-based
T2 construct: aggregating human, citrated, platelet-rich plasma; from tissue; host or cells: human citrated platelet-rich plasma (platelets)
T2 sequence (P21731 1-343): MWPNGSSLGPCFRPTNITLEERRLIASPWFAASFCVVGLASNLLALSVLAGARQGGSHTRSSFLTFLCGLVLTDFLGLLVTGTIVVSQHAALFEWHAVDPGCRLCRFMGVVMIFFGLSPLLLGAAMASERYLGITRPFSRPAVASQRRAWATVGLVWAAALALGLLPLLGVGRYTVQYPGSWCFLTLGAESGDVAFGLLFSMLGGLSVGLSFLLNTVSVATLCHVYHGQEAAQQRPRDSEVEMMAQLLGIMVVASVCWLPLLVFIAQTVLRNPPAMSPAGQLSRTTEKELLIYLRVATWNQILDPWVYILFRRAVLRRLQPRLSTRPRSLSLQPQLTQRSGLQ
Excerpt: (b) a blood platelet aggregation test based on that described by Born (Nature, 1962, 194, 927-929) and involving:
(i) aggregating human, citrated, platelet-rich plasma by addition of the TXA2 mimetic agent U46619 so that a dose-response curve is generated;
(ii) generating a dose-response curve for U46619 stimulated platelet aggregation in the presence of increasing amounts of test compound (generally in the range 10^-5 M to 10^-10 M); and
(iii) calculating a KB value indicating potency of TXA2 antagonism for the test compound, averaged over several concentrations, from the calculated 50% response value for U46619 aggregation in the presence and absence of test compound; and
as §2

[5] = target: T3, (Oryctolagus cuniculus, UniProt Q6WQI8); experiment: Test (a): rabbit aortic strip model, TXA2 or U46619 as agonist; assay type: cell-based; settings: comparison compound
T3 construct: functional contraction assay (pA2)
T3 sequence (Q6WQI8 1-233): T1 sequence (Q6WQI8 1-233)
Procedure: as §1, §2

TXA2 [6] = experiment: TXA2 antagonist properties (test not specified; one or other of the standard tests); settings: qualitative statement
Excerpt: As stated earlier, the acids of formula I are antagonists of one or more of the actions of TXA2, for example certain of its actions on blood platelets, the vasculature and/or the lung.

[7] = 1 hour after oral dose of 0.5 mg/kg

| Structure (SMILES) | inhibition of U46619 induced hypertension [1, 7] | pA2 (±0.05) (TXA2 [2]) | dose ratio (U46619 bronchoconstriction) [3] | Kb [4] | pA2 [5] | TXA2 antagonist properties (TXA2 [6]) | inhibition of U46619 induced hypertension ([1]; 1 hour after oral dose of 0.1 mg/kg) |
| --- | --- | --- | --- | --- | --- | --- | --- |
| CCC(C)C1OCC(CC=CCCC(=O)O)C(c2ccccc2O)O1 (stereo not drawn) [compound (iii), 4(Z)-6-([2,4,5-cis-]-2-sec-butyl-4-o-hydroxyphenyl-1,3-dioxan-5-yl)hexenoic acid] | > 70% | 7.80 | > 75 | 13.4 nM | – | – | – |
| CC(C)[C@H]1OC[C@@H](C/C=C\CCC(=O)O)[C@@H](c2ccccc2O)O1 (relative stereo) [compound (i), 4(Z)-6-([2,4,5-cis]-4-o-hydroxyphenyl-2-isopropyl-1,3-dioxan-5-yl)hexenoicacid] | > 70% | 7.71 | > 75 | 17.9 nM | – | – | – |
| CC(C)[C@H]1OC[C@@H](C/C=C\CCCC(=O)O)[C@@H](c2ccccc2)O1 (relative stereo) [5(Z)-7-([2,4,5-cis]-2-isopropyl-4-phenyl-1,3-dioxan-5-yl)heptenoic acid, reference compound] | – | – | – | – | 5.9 | signficantly lower TXA2 antagonist properties | – |
| CC(C)(C)[C@H]1OC[C@@H](C/C=C\CCC(=O)O)[C@@H](c2ccccc2O)O1 (relative stereo) [compound (ii), 4(Z)-6-([2,4,5-cis]-2-t-butyl-4-o-hydroxyphenyl-1,3-dioxan-5-yl)hexenoic acid] | – | 7.86 | > 110 | 13.1 nM | – | – | > 75% |
